In US7470686B2, “Method of inhibiting the expression and/or the activity of JNK” (Laboratoires Serono SA, priority 1999, dated 2008) one finds melting point, IC50 and inhibition data, which are given here for 19 compounds.

The structures appear in SMILES notation. Counter-ions that a name gives are not always drawn. A value given as a limit tells only on which side of the number the result lay.

In data set [1] the target is recombinant, pre-activated GST-JNK3 (Homo sapiens, UniProt P53779). The data set can be described thus: JNK3 enzyme assay (SPA, GST-c-Jun phosphorylation). In kind it is biochemical. Conditions: 2 μM ATP, 120 min at R.T. The method, then: (§1) JNK2 and 3 enzyme assay: […] The incubation is performed for 120 min. at R.T and stopped upon addition of 200 μl of a solution containing 250 μg of Streptavidine-coated SPA beads (Amersham, Inc.)*, 5 mM EDTA, 0.1% Triton X-100 and 50 μM ATP, in phosphate saline buffer. After incubation for 60 minutes at RT, beads are sedimented by centrifugation at 1500×g for 5 minutes, resuspended in 200 μl of PBS containing 5 mM EDTA, 0.1% Triton X-100 and 50 μM ATP and the radioactivity measured in a scintillation β counter, following sedimentation of the beads as described above. By substituting GST-c Jun for biotinylated GST-1ATF2 or myelin basic protein, this assay can be used to measure inhibition of preactivated p38 and ERK MAP Kinases, respectively.
recombinant, pre-activated GST-JNK3, sequence (P53779 whole entry): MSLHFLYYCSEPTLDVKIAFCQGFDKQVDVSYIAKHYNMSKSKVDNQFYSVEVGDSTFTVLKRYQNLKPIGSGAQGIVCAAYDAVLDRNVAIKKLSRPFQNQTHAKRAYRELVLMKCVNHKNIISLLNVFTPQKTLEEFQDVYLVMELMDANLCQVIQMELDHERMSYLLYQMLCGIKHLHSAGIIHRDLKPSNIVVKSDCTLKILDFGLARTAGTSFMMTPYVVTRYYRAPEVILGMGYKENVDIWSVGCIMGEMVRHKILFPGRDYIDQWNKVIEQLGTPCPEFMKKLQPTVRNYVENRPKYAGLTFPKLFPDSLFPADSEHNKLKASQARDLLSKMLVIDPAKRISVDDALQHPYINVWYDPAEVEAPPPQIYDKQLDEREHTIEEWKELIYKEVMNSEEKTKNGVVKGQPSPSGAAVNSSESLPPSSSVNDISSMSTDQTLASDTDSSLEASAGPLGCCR

In data set [2] the target is ERK2 (Homo sapiens, UniProt P28482). The data set can be described thus: ERK2 enzyme assay (SPA, myelin basic protein substrate). The data set is classed as biochemical. The method, then: as §1
ERK2, sequence (P28482 whole entry, species assumed): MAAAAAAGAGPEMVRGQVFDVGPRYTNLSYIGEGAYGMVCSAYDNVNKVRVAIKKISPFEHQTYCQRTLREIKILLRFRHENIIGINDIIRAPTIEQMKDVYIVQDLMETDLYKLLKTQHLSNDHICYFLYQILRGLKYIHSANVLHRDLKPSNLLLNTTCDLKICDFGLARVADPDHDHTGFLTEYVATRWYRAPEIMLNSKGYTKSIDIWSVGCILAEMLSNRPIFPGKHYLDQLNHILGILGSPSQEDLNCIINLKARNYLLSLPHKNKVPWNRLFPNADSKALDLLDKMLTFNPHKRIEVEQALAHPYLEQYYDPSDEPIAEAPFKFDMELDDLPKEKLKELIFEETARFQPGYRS
The target of data set [3] is recombinant, pre-activated GST-JNK2 (Homo sapiens, UniProt P45984). The data set can be described thus: JNK2 enzyme assay (SPA, GST-c-Jun phosphorylation). In kind it is biochemical. The note with it: 2 μM ATP, 120 min at R.T. The method, then:
as §1

Data set [4] addresses preactivated p38 (Homo sapiens, UniProt Q16539). The data set can be described thus: p38 enzyme assay (SPA, GST-ATF2 substrate). The data set is classed as biochemical. On the procedure:
The incubation is performed for 120 min. at R.T and stopped upon addition of 200 μl of a solution containing 250 μg of Streptavidine-coated SPA beads (Amersham, Inc.)*, 5 mM EDTA, 0.1% Triton X-100 and 50 μM ATP, in phosphate saline buffer. After incubation for 60 minutes at RT, beads are sedimented by centrifugation at 1500×g for 5 minutes, resuspended in 200 μl of PBS containing 5 mM EDTA, 0.1% Triton X-100 and 50 μM ATP and the radioactivity measured in a scintillation β counter, following sedimentation of the beads as described above. By substituting GST-c Jun for biotinylated GST-1ATF2 or myelin basic protein, this assay can be used to measure inhibition of preactivated p38 and ERK MAP Kinases, respectively.

The subject of data set [5] is JNK (Hlr c-Jun HeLa cells). Kind of data set: C-Jun reporter assay. The note with it: Homo sapiens, MEKK1-transfected Hlr c-Jun HeLa cells, luciferase reporter. In kind it is cell-based. On the procedure:
Hlr c-Jun HeLa cells are cultured in DMEM High Glc supplemented with 10% FCS (Sigma), 2 mM Glutamine (Gibco), P/S, Hygromycin b 100 µg/mL and G418 250 μg/mL
The cells from flasks of near-confluent cultures are detached and disaggregated by treatment with trypsin as described above. The cells are resuspended in culture medium and counted. The cell suspension are diluted with medium to give about 3.5×10^6 cells/mL and […] of cell suspension are put onto 2 10 cm culture dishes containing 9 mL of culture medium. The plates are incubated at 37° C. in a humidified atmosphere of 5% CO2 in air
• Control 0.2 μg pTK Renilla, 5.8 μg pBluescript KS, 500 μl OPTIMEM (GIBCO), 18 μl Fugene 6 • Induced 0.1 μg pMEKK1, 0.2 μg pTK Renilla, 5.7 μg pBluescript KS, 500 μl OPTIMEM (GIBCO), 18 μl Fugene 6 30′ RT
The transfection mixture is added to the plated cells. The plates are incubated over night at 37° C. in a humidified atmosphere of 5% CO2 in air
A 96 wells plate containing 100 μl of culture medium per well is prepared
Compound: 2 μl of Hit compound stock dilution are added to the 100 μl (in triplicate). The transfected cells are trypsinised and re-suspend in 12 mL of culture medium. 100 μl of the dilution are added to each of the 96 wells plate. The plate is incubated over night at 37° C. in a humidified atmosphere of 5% CO2 in air
The medium is removed from the plate and the cells washed two times with 100 μl PBS Completely remove the rinse solution before applying PLB reagent. Dispense into each culture well […] of 1×PLB. Place the culture plates on a rocking platform or orbital shaker with gentle rocking/shaking to ensure complete and even coverage of the cell monolayer with 1×PLB. Rock the culture plates at room temperature for 15 minutes. Transfer 20 μl of the lysate into a white opaque 96 wells plate. Read in a luminometer. • Inject 50 μl of Luciferase Assay Reagent II wait 5″, read 10″ • Inject 50 μl of Stop & Glo® Reagent wait 5″, read 10″ Check RLU Luciferase/RLU Renilla*1000

recombinant, pre-activated GST-JNK2, sequence (P45984 whole entry): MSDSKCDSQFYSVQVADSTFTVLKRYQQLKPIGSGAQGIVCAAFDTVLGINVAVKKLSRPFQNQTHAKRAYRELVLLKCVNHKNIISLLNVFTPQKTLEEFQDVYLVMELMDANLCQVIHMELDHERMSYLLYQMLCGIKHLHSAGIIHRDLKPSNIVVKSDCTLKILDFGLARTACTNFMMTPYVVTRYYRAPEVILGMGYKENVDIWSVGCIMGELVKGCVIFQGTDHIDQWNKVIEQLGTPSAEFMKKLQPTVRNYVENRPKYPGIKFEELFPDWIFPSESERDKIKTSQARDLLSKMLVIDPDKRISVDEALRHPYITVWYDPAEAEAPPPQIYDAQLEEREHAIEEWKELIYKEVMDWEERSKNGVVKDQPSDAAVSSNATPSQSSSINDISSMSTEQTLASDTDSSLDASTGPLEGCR
preactivated p38, sequence (Q16539 whole entry): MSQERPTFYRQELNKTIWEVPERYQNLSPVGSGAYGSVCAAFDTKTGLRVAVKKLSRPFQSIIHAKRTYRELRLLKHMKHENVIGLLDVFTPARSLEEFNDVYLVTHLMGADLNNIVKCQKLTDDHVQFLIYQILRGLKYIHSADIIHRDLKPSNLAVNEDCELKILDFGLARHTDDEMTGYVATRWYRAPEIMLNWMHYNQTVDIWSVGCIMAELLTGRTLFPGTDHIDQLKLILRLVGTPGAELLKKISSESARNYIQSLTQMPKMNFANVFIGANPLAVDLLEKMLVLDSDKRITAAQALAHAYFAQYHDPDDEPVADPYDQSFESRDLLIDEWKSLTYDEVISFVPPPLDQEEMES

Turning to `N#CC(c1ccnc(NCCc2ccccn2)n1)c1nc2ccccc2s1` (stereo not drawn) (as salt: TFA) [Compound 28, 1,3-benzothiazol-2-yl(2-{[2-(2-pyridinyl)ethyl]amino}-4-pyrimidinyl)acetonitrile], the melting point (commonly the temperature, or range, at which the solid turns liquid) is 247 °C (dec.).
For the compound `N#CC(c1ccnc(NCc2ccccn2)n1)c1nc2ccccc2s1` (stereo not drawn) (as salt: TFA) [Compound 29, 1,3-benzothiazol-2-yl{2-[(2-pyridinylmethyl)amino]-4-pyrimidinyl}acetonitrile], the melting point is 250 °C (dec.).
Still for that read-out and setting: the result for `CN(C)CCCNc1nccc(C(C#N)c2nc3ccccc3s2)n1` (stereo not drawn) (as salt: TFA) [Compound 47, 1,3-benzothiazol-2-yl(2-{[3-(dimethylamino)propyl]amino}pyrimidin-4-yl)acetonitrile] reads 204 to 205 °C; that for `N#CC(c1ccnc(NCCN2CCCCC2)n1)c1nc2ccccc2s1` (stereo not drawn) (as salt: TFA) [Compound 48, 1,3-benzothiazol-2-yl {2-[(2-piperidin-1-ylethyl)amino]pyrimidin-4-yl}acetonitrile], 228 to 230 °C.
On the same count and under the same terms, the result for `Cn1cncc1CCNc1nccc(C(C#N)c2nc3ccccc3s2)n1` (stereo not drawn) (as salt: TFA) [Compound 49, 1,3-benzothiazol-2-yl(2-{[2-(1-methyl-1H-imidazol-5-yl)ethyl]amino}pyrimidin-4-yl)acetonitrile] reads 219 to 220 °C.
Turning to `N#CC(c1ccnc(Cl)n1)c1nc2ccccc2s1` (stereo not drawn) [Compound 1, 1,3-benzothiazol-2-yl(2-chloro-4-pyrimidinyl)-acetonitrile], the IC50 (usually the concentration that inhibits the measured activity by half) in data set [1] is 290 nM; in data set [2], over 30000 nM; in data set [3], 500 nM.
For `CSc1nccc(C(C#N)c2nc3ccccc3s2)n1` (stereo not drawn) [Compound 4, 1,3-benzothiazol-2-yl[2-(methylsulfanyl)-4-pyrimidinyl]acetonitrile], the half-maximal inhibitory concentration (IC50) in data set [1] is 350 nM; in data set [2], over 30000 nM; in data set [3], 970 nM.
In the case of `N#CC(c1ccnc(NCCc2c[nH]cn2)n1)c1nc2ccccc2s1` (stereo not drawn) [Compound 10, 1,3-benzothiazol-2-yl(2-{[2-(1H-imidazol-4-yl)ethyl]amino}-4-pyrimidinyl)acetonitrile], the IC50 in data set [1] was 70 nM; in data set [4] it was over 30000 nM; in data set [2], over 30000 nM; in data set [3], 210 nM.
In the case of `CNc1nccc(C(C#N)c2nc3ccccc3s2)n1` (stereo not drawn) [Compound 15, 1,3-benzothiazol-2-yl[2-(methylamino)-4-pyrimidinyl]acetonitrile], the results for the IC50 in data set [1], in data set [2] and in data set [3] were 950 nM, over 30000 nM and 2300 nM, respectively.
On to `N#CC(c1ccnc(NCCO)n1)c1nc2ccccc2s1` (stereo not drawn) [Compound 23, 1,3-benzothiazol-2-yl {2-[(2-hydroxyethyl)amino]-4-pyrimidinyl}acetonitrile], for which the IC50 in data set [1] was 510 nM; in data set [4], over 30000 nM; in data set [2], over 30000 nM; in data set [3] it was 1800 nM.
Consider `N#CC(c1ccnc(N2CCCC2)n1)c1nc2ccccc2s1` (stereo not drawn) [Compound 26, 1,3-benzothiazol-2-yl[2-(1-pyrrolidinyl)-4-pyrimidinyl]acetonitrile], for which the melting point lay in the range of 270 to 272 °C.
Still for that read-out and setting: to `N#CC(c1ccnc(NCCc2ccccc2)n1)c1nc2ccccc2s1` (stereo not drawn) [Compound 27, 1,3-benzothiazol-2-yl {2-[(2-phenylethyl)amino]-4-pyrimidinyl}acetonitrile] belongs 256 °C (dec.).
Take `N#CC(c1ccnc(NCCc2cccnc2)n1)c1nc2ccccc2s1` (stereo not drawn) [Compound 33, 1,3-benzothiazol-2-yl(2-{[2-(3-pyridinyl)ethyl]amino}-4-pyrimidinyl)acetonitrile]: in data set [5], the inhibition (usually the relative decrease from the control value, in per cent) at 10 µM was over 50%.
On to `N#CC(c1ccnc(NCCc2ccc(O)cc2)n1)c1nc2ccccc2s1` (stereo not drawn) [Compound 43, 1,3-benzothiazol-2-yl(2-{[2-(4-hydroxyphenyl)ethyl]amino}pyrimidin-4-yl)acetonitrile], for which the melting point is 258 to 261 °C.
For the compound `N#CC(c1ccnc(OCc2ccccc2)n1)c1nc2ccccc2s1` (stereo not drawn) [Compound 80, 1,3-benzothiazol-2-yl[2-(benzyloxy)pyrimidin-4-yl]acetonitrile], the IC50 in data set [1] is 60 nM; in data set [4], over 30000 nM; in data set [2] it was over 30000 nM; in data set [3], 250 nM.
In data set [5], `N#CC(c1ccnc(OCc2ccc(CN3CCOCC3)cc2)n1)c1nc2ccccc2s1` (stereo not drawn) [Compound 93, 1,3-benzothiazol-2-yl(2-{[4-(morpholin-4-ylmethyl)benzyl]oxy}pyrimidin-4-yl)acetonitrile] showed an inhibition at 10 µM of over 50%.
In turn, `N#CC(c1ccnc(OCc2ccc(CN3CCCCC3)cc2)n1)c1nc2ccccc2s1` (stereo not drawn) [Compound 95, 1,3-benzothiazol-2-yl(2-{[4-(piperidin-1-ylmethyl)benzyl]oxy}pyrimidin-4-yl)acetonitrile] showed an inhibition at 10 µM in data set [5] of over 50%.
For the compound `COc1ccc(Oc2nccc(C(C#N)c3nc4ccccc4s3)n2)cc1` (stereo not drawn) [Compound 96, 1,3-benzothiazol-2-yl[2-(4-methoxyphenoxy)pyrimidin-4-yl]acetonitrile], the IC50 in data set [1] is 30 nM; in data set [4] it was over 30000 nM; in data set [2], over 30000 nM; in data set [3], 300 nM.
Regarding `COc1nccc(C(C#N)c2nc3ccccc3s2)n1` (stereo not drawn) [Compound 102, 1,3-benzothiazol-2-yl(2-methoxy-4-pyrimidinyl)-acetonitrile], the IC50 in data set [1] is 105 nM; in data set [2], over 30000 nM; in data set [3], 450 nM.
